We go through nine compounds from US11840535B2, “Alkynyl(hetero)aromatic compound for inhibiting protein kinase activity” (Shenzhen TargetRx, Inc., priority 2018, dated 2023).

The target of one data set is ABL (Homo sapiens (Human), UniProt P00519). The experiment in a line: Biochemical kinase analysis, ABL. The protocol:
(§1) Reagents and materials: ABL (ThermoFisher, Cat. No PV3585), ABL^T315I (Thermo Fisher, Cat. No. PR7429B), ATP (Sigma, Cat. No. A7699-1G), DMSO (Sigma, Cat. No. D2650), 96-well plate (Corning, Cat. No. 3365), 384-well plate (Greiner, Cat. No. 784076), buffer solution (Thermo Fisher, Cat. No. PR4876B).
(§2) Compound formulation: The test compounds were dissolved in DMSO to prepare a 20 mM stock solution. Before use, the compounds were diluted in DMSO to 0.1 mM, and diluted into 11 concentrations with a 3-fold gradient. When addition, diluentions of 4-fold final concentration were then made with buffer solution.
(§3) Kinase assay method: After preparing the buffer, the enzyme was mixed with pre-formulated and diluted compounds of different concentrations in duplicate for each concentration, and placed at room temperature for 30 minutes. The corresponding substrate and ATP were added thereto, and reacted at room temperature for 60 minutes (both a negative and a positive control were set). After the reaction, antibody was added for detection, Envision detection was carried out after 60 minutes incubation at room temperature, and data was collected. Data analysis and fitting were made according to XLfit5 software, wherein, A represents IC50≤5 nM, B represents IC50 is 5-50 nM, C represents IC50 is 50-100 nM, D represents IC50>100 nM.

In the next data set the target is ABL^T315I (Homo sapiens (Human), UniProt P00519, T315I). The experiment in a line: Biochemical kinase analysis, ABL T315I. The method, then: as §1, §2, §3
For the next data set, the system named is Ba/F3 parental cells. Nature of the data set: Cell proliferation analysis, Ba/F3 parental. Format: cell-based. The conditions noted are these: Mus musculus, BaF3, 72 h; 8 ng/ml IL-3, 3 days, CellTiter-Glo. The method, then:
(§4) The inhibitory effect of the example compounds on Ba/F3, Ba/F3 Bcr-Abl T315I cell activity was determined.
(§5) Materials and reagents: RPMI-1640 medium (GIBCO, Catalog No. A10491-01), fetal bovine serum (GIBCO, Catalog No. 10099141), antibiotics (Penicillin-Streptomycin), IL-3 (PeproTech), promycin; cell lines: Ba/F3, Ba/F3 Bcr-Abl T315I (Purchased from American type culture collection, ATCC), live cell detection kit […] (Promega, Catalog No. G7572), 96-well black wall transparent flat bottom cell culture plate (Corning, Catalog No. 3340).
(§6) Test method: 1. Preparation of cell plate: Ba/F3, Ba/F3 Bcr-Abl T315I cells were respectively seeded in 96-well plates, and 8 ng/ml IL-3 was added to the Ba/F3 cells, and the cell plates were placed in a carbon dioxide incubator and cultured overnight. 2. The test compounds were dissolved in DMSO, 9 compound concentrations were made with a 3.16-fold gradient dilution in triplicate. 3. Treatment of the cells with compounds: The compounds were transferred to the cell plate with a starting concentration of 10 μM. The cell plate was placed in a carbon dioxide incubator for 3 days. 4. Detection: CellTiter-Glo agent was added to the cell plate, and incubated at room temperature for 30 minutes to stabilize the luminous signal. PerkinElmer Envision multi-label analyzer was used for reading, wherein A represents […], B represents IC50 is 10-20 nM, C represents IC50 is 20-50 nM, D represents IC50 is 50-1000 nM, E represents IC50>1000 nM.
For orientation: ATP-based viability assays read luminescence as a measure of living cells.

Data set [1] deals with Ba/F3 Bcr-Abl T315I cells. Nature of the data set: Cell proliferation analysis, Ba/F3 Bcr-Abl T315I. Format: cell-based. The conditions noted are these: for IC50: Mus musculus, BaF3, 72 h, 3 days, CellTiter-Glo; for Selectivity [Ba/F3 (parental/Bcr-Abl ^T315I)]: ratio of Ba/F3 parental to Ba/F3 Bcr-Abl T315I. The method, then: as §4, §5, §6
The nature of data set [2]: Metabolic stability evaluation, human liver microsome assay. Format: in vitro ADME. Conditions: pH 7.4, human liver microsomes 0.5 mg/mL, compound 1 μM, 37° C.; for microsomal CLint at 1 μM: read-out: HLM Clint; for half-life at 1 μM: read-out: HLM T1/2. The method, then:
Microsome assay: human liver microsomes: 0.5 mg/mL, Xenotech; coenzyme (NADPH/NADH): 1 mM, Sigma Life Science; magnesium chloride: 5 mM, 100 mM phosphate buffer (pH is 7.4).
Preparation of stock solution: Powder of the example compounds and the reference compound were accurately weighed, and dissolved to 5 mM with DMSO, respectively.
Preparation of phosphate buffer (100 mM, pH7.4): Pre-formulated 150 mL 0.5 M potassium dihydrogen phosphate and 700 mL 0.5 M dipotassium hydrogen phosphate were mixed, then the pH of the mixture was adjusted to 7.4 with 0.5 M dipotassium hydrogen phosphate. Before use, 5-fold dilution was made with ultra-pure water, and magnesium chloride was added to afford phosphate buffer (100 mM), which containing 100 mM potassium phosphate, 3.3 mM magnesium chloride, and pH is 7.4.
NADPH regeneration system solution (containing 6.5 mM NADP, 16.5 mM G-6-P, 3 U/mL G-6-P D, 3.3 mM magnesium chloride) was prepared and placed on wet ice before use.
Preparation of stop solution: Acetonitrile solution containing 50 ng/mL propranolol hydrochloride and 200 ng/mL tolbutamide (internal standard). 25057.5 μL phosphate buffer (pH 7.4) was taken into a 50 mL centrifuge tube, and 812.5 μL human liver microsome was added respectively, mixed well to afford liver microsome diluention with a protein concentration of 0.625 mg/mL.
Incubation of the sample: The stock solutions of the corresponding compounds were diluted to 0.25 mM with an aqueous solution containing 70% acetonitrile as working solutions for use. 398 μL of human liver microsome diluention was taken and added to a 96-well incubation plate (N=2), respectively, and 2 μL of 0.25 mM working solutions were then added respectively, and mixed well.
Determination of metabolic stability: 300 μL of pre-chilled stop solution was added to each well of a 96-well deep well plate and the plate was placed on ice as a stop plate. The 96-well incubation plate and NADPH regeneration system were placed in a 37° C. water bath, shook at 100 rpm, and pre-incubated for 5 min. 80 μL of incubation solution was taken from each well of the incubation plate and added to the stop plate, mixed well, and 20 μL of NADPH regeneration system solution was supplemented, the resulted solution was considered as sample at 0 min. Then 80 μL of NADPH regeneration system solution was added to each well of the incubation plate to start the reaction and started timing. The reaction concentration of the corresponding compound is 1 μM, and the protein concentration is 0.5 mg/mL. 100 μL reaction solution was taken at 10, 30, 90 min of reaction, respectively, and added into stop plate, the reaction was stopped with 3 min vortex. The stop plate was centrifuged at 5000×g, 4° C. for 10 min. 100 μL of supernatant was taken to a 96-well plate where 100 μL of distilled water was added in advance, mixed well, sample analysis was carried out by LC-MS/MS.
Data analysis: LC-MS/MS system was used to detect peak area of corresponding compound and internal standard, peak area ratio of compound to internal standard was calculated. The slope was measured by plotting the natural logarithm of the remaining percentage of the compound versus time, and t1/2 and CLint were calculated according to the following formula, wherein V/M means 1/protein concentration.

Broadly, the IC50 is the concentration that inhibits the measured activity by half. Regarding `CCn1cc(C#Cc2cc(C(=O)Nc3ccc(CN4CCN(C)CC4)c(C(F)(F)F)c3)ccc2C)c2c(N)ncnc21` [Example 5, 3-((4-amino-7-ethyl-7H-pyrrolo[2,3-d]pyrimidin-5-yl)ethynyl)-4-methyl-N-(4-((4-methylpiperazin-1-yl)methyl)-3-(trifluoromethyl)phenyl)benzamide], the IC50 was at most 5 nM against ABL, at most 5 nM on ABL^T315I, 50 to 1000 nM in the data set with Ba/F3 parental cells and at most 10 nM in data set [1]. Besides, the “Selectivity [Ba/F3 (parental/Bcr-Abl ^T315I)]” value in data set [1] was 100~150. Further, the microsomal CLint at 1 μM in data set [2] was 19.9 µL/min/mg. The half-life at 1 μM in data set [2] is 1.16 h.

With `CCn1cc(C#Cc2cc(NC(=O)c3ccc(CN4CCN(C)CC4)c(C(F)(F)F)c3)ccc2C)c2c(N)ncnc21` [Example 18, N-(3-((4-amino-7-ethyl-7H-pyrrolo[2,3-d]pyrimidin-5-yl)ethynyl)-4-methylphenyl)-4-((4-methylpiperazin-1-yl)methyl)-3-(trifluoromethyl)benzamide], the concentration for half-maximal inhibition (IC50) was at most 5 nM on ABL, at most 5 nM against ABL^T315I, above 1000 nM in the data set with Ba/F3 parental cells and at most 10 nM in data set [1]. For the same compound, the “Selectivity [Ba/F3 (parental/Bcr-Abl ^T315I)]” value in data set [1] is recorded as 100~150. Moreover, in data set [2], the microsomal CLint at 1 μM turned out to be 17 µL/min/mg. In addition, in data set [2], the half-life at 1 μM worked out at 1.36 h.

For the compound `CCn1cc(C#Cc2cc(NC(=O)c3cccc(C(F)(F)F)c3)ccc2C)c2c(N)ncnc21` [Example 17, N-(3-((4-amino-7-ethyl-7H-pyrrolo[2,3-d]pyrimidin-5-yl)ethynyl)-4-methylphenyl)-3-(trifluoromethyl)benzamide], the half-inhibitory concentration (IC50) is at most 5 nM against ABL, at most 5 nM against ABL^T315I, above 1000 nM with Ba/F3 parental cells and 10 to 20 nM in data set [1]. Besides, the “Selectivity [Ba/F3 (parental/Bcr-Abl ^T315I)]” value in data set [1] is recorded as 50~100. Besides, in data set [2], the microsomal CLint at 1 μM was 17.2 µL/min/mg. In data set [2], the half-life at 1 μM amounted to 1.34 h.

For the compound `CCn1cc(C#Cc2cc(C(=O)Nc3cccc(C(F)(F)F)c3)ccc2C)c2c(N)ncnc21` [Example 6, 3-((4-amino-7-ethyl-7H-pyrrolo[2,3-d]pyrimidin-5-yl)ethynyl)-4-methyl-N-(3-(trifluoromethyl)phenyl)benzamide], the IC50 against ABL is at most 5 nM; against ABL^T315I, at most 5 nM; in the data set on Ba/F3 parental cells it was above 1000 nM; in data set [1], 10 to 20 nM. For the same compound, the “Selectivity [Ba/F3 (parental/Bcr-Abl ^T315I)]” value in data set [1] is recorded as 100~150. In addition, in data set [2], the microsomal CLint at 1 μM amounted to 3.5 µL/min/mg. Also, the half-life at 1 μM in data set [2] worked out at 6.58 h.

On to `Cc1ccc(NC(=O)c2ccc(CN3CCN(C)CC3)c(C(F)(F)F)c2)cc1C#Cc1cn([C@H]2CC[C@H](O)CC2)c2ncnc(N)c12` [Example 25, N-(3-((4-amino-7-((1r,4r)-4-hydroxycyclohexyl)-7H-pyrrolo[2,3-d]pyrimidin-5-yl)ethynyl)-4-methylphenyl)-4-((4-methylpiperazin-1-yl)methyl)-3-(trifluoromethyl)benzamide], for which the IC50 against ABL was at most 5 nM; on ABL^T315I, at most 5 nM; in the data set on Ba/F3 parental cells, above 1000 nM; in data set [1], 20 to 50 nM. Further, the “Selectivity [Ba/F3 (parental/Bcr-Abl ^T315I)]” value in data set [1] was 0~50. The microsomal CLint at 1 μM in data set [2] is 7.6 µL/min/mg. Further, the half-life at 1 μM in data set [2] amounted to 3.03 h.

Consider `Cc1cn(-c2cc(NC(=O)c3ccc(C)c(C#Cc4cn(C(C)C)c5ncnc(N)c45)c3)cc(C(F)(F)F)c2)cn1` [Example 12, 3-((4-amino-7-isopropyl-7H-pyrrolo[2,3-d]pyrimidin-5-yl)ethynyl)-4-methyl-N-(3-(4-methyl-1H-imidazol-1-yl)-5-(trifluoromethyl)phenyl)benzamide], for which the concentration for half-maximal inhibition (IC50) against ABL is 5 to 50 nM; on ABL^T315I, 5 to 50 nM; in the data set on Ba/F3 parental cells, above 1000 nM; in data set [1] it was 20 to 50 nM. Further, in data set [1], the “Selectivity [Ba/F3 (parental/Bcr-Abl ^T315I)]” value was 150~500. Besides, the microsomal CLint at 1 μM in data set [2] came to 20.9 µL/min/mg. The half-life at 1 μM in data set [2] is 1.11 h.

`Cc1ccc(C(=O)Nc2cccc(C(F)(F)F)c2)cc1C#Cc1cn(C(C)C)c2ncnc(N)c12` [Example 13, 3-((4-amino-7-isopropyl-7H-pyrrolo[2,3-d]pyrimidin-5-yl)ethynyl)-4-methyl-N-(3-(trifluoromethyl)phenyl)benzamide]: the IC50 against ABL is 5 to 50 nM; on ABL^T315I, 5 to 50 nM; in the data set with Ba/F3 parental cells it was above 1000 nM; in data set [1], 20 to 50 nM. The “Selectivity [Ba/F3 (parental/Bcr-Abl ^T315I)]” value in data set [1] was 100~150.

As to `Cc1ccc(C(=O)Nc2ccc(CN3CCN(C)CC3)c(C(F)(F)F)c2)cc1C#Cc1cn([C@H]2CC[C@H](O)CC2)c2ncnc(N)c12` [Example 22, 3-((4-amino-7-((1r,4r)-4-hydroxycyclohexyl)-7H-pyrrolo[2,3-d]pyrimidin-5-yl)ethynyl)-4-methyl-N-(4-((4-methylpiperazin-1-yl)methyl)-3-(trifluoromethyl)phenyl)benzamide], the IC50 at ABL was at most 5 nM; at ABL^T315I, at most 5 nM; with Ba/F3 parental cells, above 1000 nM; in data set [1] it was 20 to 50 nM. The “Selectivity [Ba/F3 (parental/Bcr-Abl ^T315I)]” value in data set [1] is 0~50. Also, the microsomal CLint at 1 μM in data set [2] was found to be 6.1 µL/min/mg. The half-life at 1 μM in data set [2] was 3.8 h.

For the compound `Cc1ccc(C(=O)Nc2cccc(C(F)(F)F)c2)cc1C#Cc1cn(C)c2ncnc(N)c12` [Example 14, 3-((4-amino-7-methyl-7H-pyrrolo[2,3-d]pyrimidin-5-yl)ethynyl)-4-methyl-N-(3-(trifluoromethyl)phenyl)benzamide], the IC50 against ABL is at most 5 nM; on ABL^T315I, at most 5 nM; in the data set on Ba/F3 parental cells it was above 1000 nM; in data set [1], 20 to 50 nM. Also, the “Selectivity [Ba/F3 (parental/Bcr-Abl ^T315I)]” value in data set [1] is listed as 50~100.
